Data taken from patent US9808426B2, “Ternary mixture formulations” (priority 2011, dated 2017).

Experiments:
[1] = In vitro dissolution, USP Type II apparatus, simulated gastric fluid pH 1.2 without enzymes; type: physicochemical; conditions: itraconazole 100 mg, 900 ml simulated gastric fluid pH 1.2, 100 rpm, 37°C
Method: The dissolution profile of pure itraconazole was compared to the dissolution profile itraconazole from the free-flowing powder formulation that was made by the process described in Example 3. The amount of free flowing powder formulation used in the dissolution studies was equivalent to amount of the formulation containing 100 mg of itraconazole. The amount of pure itraconazole used as a control in the studies was also 100 mg. […] The analysis was performed using a USP Type II dissolution apparatus with the paddle speed and temperature maintained at 100 rpm and 37±0.5° C. Three ml aliquots were removed at 10, 20, 30, 45 and 60 minute intervals. Subsequently, the amount of itraconazole in each of the aliquots was determined by using an HP Agilent® 1100 series HPLC system (Agilent Technologies, Inc., Santa Clara, Calif.). The mobile phase solution used in the HPLC system consisted of 65% acetonitrile and 35% 10 mM potassium dihydrogen phosphate. The solution was pumped through a Phenomenex® Luna 5 μm C-18 (dimension: 150 mm×4.6 mm) column (Phenomenex Corp., Torrance Calif.) at a flow rate of 1.3 ml/min. Itraconazole was detected at a wavelength of 263 nm. […] Subsequently, the amount of itraconazole in each of the aliquots was determined by using an HP Agilent® 1100 series HPLC system (Agilent Technologies, Inc., Santa Clara, Calif.). […] Itraconazole was detected at a wavelength of 263 nm. […]

[2] = In vivo pharmacokinetic analysis after oral administration to jugular vein-cannulated rats; conditions: fenofibrate 145 mg/70 kg, plasma fenofibric acid
Method: The study was performed on jugular vein-cannulated rats weighing from 200 to 250 gm (n=4). […] Blood samples were collected at various time intervals over a 48 hour period after administration. The samples were collected into heparinized tubes through the jugular vein cannulation, centrifuged at 5000 rpm for 5 minutes. Each 50 μl plasma sample was treated with 10 μl of 50% methanol and 10 μl of an internal standard (Indomethacin), and then mixed by vortexing for 30 seconds. To that mixture, 200 μl of acetonitrile was added, followed by one minute of vortexing, centrifugation at 14,000 rpm for five minutes. […] Indomethacin was used as an internal standard for the LCMS analyis. Standard non-compartmental pharmacokinetic parameters were calculated. Briefly, noncompartmental pharmacokinetic analysis is dependent on estimation of total drug exposure. Total drug exposure is most often estimated by area under the curve (AUC) using the trapezoidal rule (numerical integration) method. Due to the dependence on the length of ‘x’ in the trapezoidal rule, the area estimation is dependent on the blood/plasma sampling schedule. That is, the closer time points are, the closer the trapezoids reflect the actual shape of the concentration-time curve.

CCC(C)n1ncn(-c2ccc(N3CCN(c4ccc(OCC5COC(Cn6cncn6)(c6ccc(Cl)cc6Cl)O5)cc4)CC3)cc2)c1=O (centres unmarked) [pure drug, itraconazole]
drug release in 10 min [1]: less than 1% | AUMC0-t [2]: 436.7 mg·h/L | CL [2]: 0.07 L/h | Cmax [2]: 7.2 mg/L | MRT (mean residence time) [2]: 9.15 h | t1/2 [2]: 7.18 h | tmax [2]: 2.5 h | AUC0-t (AUC0-48) ([2]; over 48 hours): 51 mg·h/L
